Measured values: PMC4791841, “Nanomolar Inhibitors of Trypanosoma brucei RNA Triphosphatase” (mBio, 2016)
Like-named read-outs stand apart in the source and are kept apart here.

How the values were obtained:
MimiCE = biological target: T1, MimiCE (Acanthamoeba polyphaga mimivirus, UniProt Q5UQX1); assay: biochemical; type: biochemical; conditions: for IC50/IC50 TbCet1, MimiCE: ratio in parentheses;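 on all read-outs here: mimivirus capping enzyme triphosphatase ATPase reaction, radiolabeled ATP hydrolysis to Pi quantified by TLC after 10 min, normalized to no-inhibitor control with 5% DMSO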
T1 construct: the N-terminal RTPase domain (amino acids [aa] 1 to 237) of mimivirus capping enzyme (MimiCE); HisSmt3 (N, cleaved yes); made in house; host or cells: Escherichia coli
T1 sequence (Q5UQX1 1-237): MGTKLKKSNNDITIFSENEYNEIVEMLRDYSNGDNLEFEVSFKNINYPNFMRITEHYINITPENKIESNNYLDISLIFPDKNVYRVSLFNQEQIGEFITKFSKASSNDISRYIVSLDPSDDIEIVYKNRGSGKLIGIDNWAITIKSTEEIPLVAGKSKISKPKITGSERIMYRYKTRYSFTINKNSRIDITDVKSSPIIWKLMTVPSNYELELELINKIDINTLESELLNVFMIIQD

SceCet1 = biological target: T2, SceCet1 (Saccharomyces cerevisiae, UniProt O13297); assay: TLC assay for 32Pi release from [γ-32P]ATP, SceCet1; type: biochemical; conditions: for IC50/IC50 TbCet1, SceCet1: ratio in parentheses
T2 construct: C-terminal catalytic domain (aa 241 to 539) of S. cerevisiae RTPase (SceCet1); made in house; host or cells: Escherichia coli
T2 sequence (O13297 241-539): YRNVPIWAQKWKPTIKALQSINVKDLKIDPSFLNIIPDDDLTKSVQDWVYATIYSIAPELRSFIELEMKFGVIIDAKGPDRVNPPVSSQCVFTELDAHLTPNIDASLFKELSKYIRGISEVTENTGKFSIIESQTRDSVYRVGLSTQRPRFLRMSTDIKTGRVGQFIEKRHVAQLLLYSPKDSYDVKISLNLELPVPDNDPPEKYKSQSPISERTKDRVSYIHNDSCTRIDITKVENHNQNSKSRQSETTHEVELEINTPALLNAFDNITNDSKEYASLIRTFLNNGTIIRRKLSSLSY

CthTTM [1] = biological target: T3, CthTTM (Acetivibrio thermocellus, UniProt A3DIJ8); assay: TLC assay for 32Pi release from [γ-32P]ATP, CthTTM; type: biochemical, Clostridium thermocellum; conditions: for IC50/IC50 TbCet1, CthTTM: ratio in parentheses
T3 sequence (A3DIJ8 1-156): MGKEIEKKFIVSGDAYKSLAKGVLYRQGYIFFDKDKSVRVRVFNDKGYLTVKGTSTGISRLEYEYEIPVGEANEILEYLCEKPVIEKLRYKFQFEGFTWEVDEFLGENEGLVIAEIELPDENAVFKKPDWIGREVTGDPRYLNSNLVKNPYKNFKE

Lef4 = biological target: T4, Lef4 (Autographa californica nuclear polyhedrosis virus, UniProt P41477); assay: TLC assay for 32Pi release from [γ-32P]ATP, Lef4; type: biochemical, Autographa californica nucleopolyhedrovirus (AcNPV); conditions: for IC50/IC50 TbCet1, Lef4: ratio in parentheses;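 on all read-outs here: Lef4 RNA triphosphatase cleaving radiolabelled ATP over 10 min at 37°C, hydrolysis set relative to inhibitor-free 5% DMSO controls, comparisons made against TbCet1 tested the same way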
T4 construct: the N-terminal RTPase domain (aa 1 to 236) of AcNPV Lef4 capping enzyme; HisSmt3 (N, cleaved yes); made in house; host or cells: Escherichia coli
T4 sequence (P41477 1-236): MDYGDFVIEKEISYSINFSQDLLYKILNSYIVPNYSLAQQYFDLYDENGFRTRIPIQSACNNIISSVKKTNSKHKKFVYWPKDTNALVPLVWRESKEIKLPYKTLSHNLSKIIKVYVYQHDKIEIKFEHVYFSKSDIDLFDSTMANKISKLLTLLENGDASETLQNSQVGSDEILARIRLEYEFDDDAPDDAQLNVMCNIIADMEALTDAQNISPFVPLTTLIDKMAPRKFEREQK

procyclic T. brucei = assay: cell proliferation of cultured procyclic T. brucei; type: cell-based, Trypanosoma brucei; conditions: 10 µM; preliminary studies, data not shown
TbCet1 [2] = biological target: T5, TbCet1 (Trypanosoma brucei brucei, UniProt Q582T2); assay: TLC assay for 32Pi release from [γ-32P]ATP, TbCet1; conditions: 2.2 nM TbCet1, 0.2 mM ATP, 2 mM Mn2+, 10 min 37°C
T5 sequence (Q582T2 1-253): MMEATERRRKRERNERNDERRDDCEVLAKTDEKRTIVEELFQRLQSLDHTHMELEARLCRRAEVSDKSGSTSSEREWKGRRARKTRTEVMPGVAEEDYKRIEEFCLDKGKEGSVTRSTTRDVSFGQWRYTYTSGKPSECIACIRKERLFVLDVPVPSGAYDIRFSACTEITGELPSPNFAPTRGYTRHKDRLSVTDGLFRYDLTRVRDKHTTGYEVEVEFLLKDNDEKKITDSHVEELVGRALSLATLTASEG

TbCet1 [3] = biological target: T5, TbCet1; assay: colorimetric malachite green HTS assay of Pi release from ATP by TbCet1
Leishmania amazonensis = system: Leishmania amazonensis; set-up: method as in PMID 25880257; conditions: cited from earlier work
[4] = system: Trypanosoma cruzi amastigotes; set-up: method as in PMID 25880257; conditions: cited from earlier work
CthTTM [5] = assay: TLC assay for 32Pi release from [γ-32P]ATP, CthTTM; type: biochemical, Clostridium thermocellum
TbCet1 [6] = biological target: T5, TbCet1; set-up: Recombinant full-length T. brucei RTPase TbCet1; HisSmt3 (N, cleaved yes); made in house; host or cells: Escherichia coli; method as in PMID 14525979; conditions: ATP substrate Km 25 µM; read-out: Ki, competitive inhibitor of TbCet1; cited from earlier work
[7] = 7 nM MimiCE, 37°C, read-out: IC50 MimiCE
[8] = 500 nM CthTTM, 37°C, read-out: IC50 CthTTM
[9] = 50 nM Lef4, 37°C, read-out: IC50 Lef4
[10] = read-out: IC50 TbCet1 by 32P assay
[11] = read-out: IC50 by HTS assay, colorimetric phosphate release from ATP, Mn2+

O=C(/C=C/c1ccc(O)c(O)c1)O[C@@H]1C[C@](OC(=O)/C=C/c2ccc(O)c(O)c2)(C(=O)O)C[C@@H](OC(=O)/C=C/c2ccc(O)c(O)c2)[C@H]1OC(=O)/C=C/c1ccc(O)c(O)c1 [Compound 1A, 1,3,4,5-O-tetracaffeoylquinic acid]
fold lower potency against MimiCE than against TbCet1 (MimiCE): 110 fold | IC50 (MimiCE; [7]): 1.4 µM | IC50/IC50 TbCet1, MimiCE (MimiCE): 108 | IC50 (SceCet1): 7.1 µM | fold lower potency against SceCet1 than against TbCet1 (SceCet1): 550 fold | IC50/IC50 TbCet1, SceCet1 (SceCet1): 546 | fold lower potency against CthTTM than against TbCet1 (CthTTM [1]): 850 fold | IC50 (CthTTM [1]; [8]): 11 µM | IC50/IC50 TbCet1, CthTTM (CthTTM [1]): 846 | fold lower potency against Lef4 than against TbCet1 (Lef4): 440 fold | IC50 (Lef4; [9]): 5.7 µM | IC50/IC50 TbCet1, Lef4 (Lef4): 438 | effect on cell proliferation (procyclic T. brucei): no effect | IC50 (TbCet1 [2]; IC50 TbCet1 by 32P assay): 13 nM | IC50 (TbCet1 [3]): 20 nM

O=C(/C=C/c1ccc(O)c(O)c1)O[C@@H]1CC(O)(C(=O)O)C[C@@H](OC(=O)/C=C/c2ccc(O)c(O)c2)C1O (stereo partly shown) [Compound 1B, 3,5-O-dicaffeoylquinic acid]
activity against Leishmania amazonensis (Leishmania amazonensis): inactive | activity against Trypanosoma cruzi amastigotes [4]: inactive | IC50 (TbCet1 [2]; [10]): 70 nM | IC50 (TbCet1 [3]; [11]): 40 nM

O=C(OC[C@H]1O[C@@H](OC(=O)c2cc(O)c(O)c(O)c2)[C@H](OC(=O)c2cc(O)c(O)c(O)c2)[C@@H](OC(=O)c2cc(O)c(O)c(O)c2)[C@@H]1OC(=O)c1cc(O)c(O)c(O)c1)c1cc(O)c(O)c(O)c1 [Compound 2A, pentagalloylglucose]
IC50 (MimiCE): 5.1 µM | IC50 (SceCet1; read-out: IC50 SceCet1): 3.2 µM | IC50 (Lef4): 59 µM | IC50 (TbCet1 [2]; IC50 TbCet1 by 32P assay): 46 nM | IC50 (TbCet1 [3]): 40 nM

O=C(CCO[C@@H]1O[C@H](CO)[C@@H](O)[C@H](O)[C@H]1O)c1ccc(O)cc1 [Compound 2B, 3-O-(4-hydroxyphenylpropanone)-1-glucopyranoside]
fold lower potency against MimiCE than against TbCet1 (MimiCE): 180 fold | IC50/IC50 TbCet1, MimiCE (MimiCE): 182 | IC50 (MimiCE; read-out: IC50 MimiCE, 7 nM MimiCE, 37°C): 120 µM | fold lower potency against SceCet1 than against TbCet1 (SceCet1): 62 fold | IC50/IC50 TbCet1, SceCet1 (SceCet1): 62 | IC50 (SceCet1; read-out: IC50 SceCet1, 25 nM SceCet1, 30°C): 41 µM | fold lower potency against CthTTM than against TbCet1 (CthTTM [1]): 44 fold | IC50/IC50 TbCet1, CthTTM (CthTTM [1]): 44 | IC50 (CthTTM [1]; read-out: IC50 CthTTM, 500 nM CthTTM, 37°C): 29 µM | IC50 (Lef4; [9]): 150 µM | IC50/IC50 TbCet1, Lef4 (Lef4): 227 | IC50 (TbCet1 [2]; [10]): 660 nM | IC50 (TbCet1 [3]; [11]): 1100 nM

O=C(/C=C/c1ccc(O)c(O)c1)O[C@H](Cc1ccc(O)c(O)c1)C(=O)O [Compound 3A, rosmarinic acid]
IC50 (TbCet1 [2]; IC50 TbCet1 by 32P assay): 120 nM | IC50 (TbCet1 [3]): 50 nM

O=C(O)C1OC(Oc2c(-c3ccc(O)c(O)c3)oc3cc(O)cc(O)c3c2=O)C(O)C(O)C1O (stereo not shown) [Compound 4A, miquelianin]
IC50 (MimiCE; [7]): 19 µM | IC50/IC50 TbCet1, MimiCE (MimiCE): 106 | IC50 (SceCet1): 43 µM | IC50/IC50 TbCet1, SceCet1 (SceCet1): 239 | IC50 (CthTTM [1]): 24 µM | IC50/IC50 TbCet1, CthTTM (CthTTM [1]): 133 | IC50 (Lef4): 29 µM | IC50/IC50 TbCet1, Lef4 (Lef4): 161 | IC50 (TbCet1 [2]; IC50 TbCet1 by 32P assay): 180 nM | IC50 (TbCet1 [3]): 180 nM

O=c1c(O)c(-c2cc(O)c(O)c(O)c2)oc2cc(O)cc(O)c12 [Compound 4B, myricetin]
IC50 (TbCet1 [2]; IC50 TbCet1 by 32P assay): 360 nM | IC50 (TbCet1 [3]): 230 nM

Oc1cc(O)c2c(c1)O[C@H](c1ccc(O)c(O)c1)[C@H](O)C2 [Compound 4C, epicatechin]
IC50 (MimiCE; [7]): 10 µM | IC50/IC50 TbCet1, MimiCE (MimiCE): 40 | IC50 (SceCet1): 8.7 µM | IC50/IC50 TbCet1, SceCet1 (SceCet1): 35 | IC50 (CthTTM [1]; [8]): 26 µM | IC50/IC50 TbCet1, CthTTM (CthTTM [1]): 104 | IC50 (Lef4): 34 µM | IC50/IC50 TbCet1, Lef4 (Lef4): 136 | IC50 (TbCet1 [2]; IC50 TbCet1 by 32P assay): 250 nM | IC50 (TbCet1 [3]): 260 nM

O=C(CCO)c1ccc(O)cc1 [Compound 5, 3-hydroxy-1-(4-hydroxyphenyl)propan-1-one]
IC50 (MimiCE; [7]): 84 µM | IC50/IC50 TbCet1, MimiCE (MimiCE): 131 | IC50 (SceCet1): > 500 µM | activity against SceCet1 (in words) (SceCet1): no effect | IC50 (CthTTM [1]; [8]): 9.2 µM | IC50/IC50 TbCet1, CthTTM (CthTTM [1]): 14 | IC50 (Lef4): 160 µM | IC50/IC50 TbCet1, Lef4 (Lef4): 250 | IC50 (TbCet1 [2]; IC50 TbCet1 by 32P assay): 640 nM | IC50 (TbCet1 [3]): 630 nM

O=C(C=Cc1ccccc1)OC1C=C(C(=O)O)CC(OC(=O)C=Cc2ccccc2)C1OC(=O)C=Cc1ccccc1 (stereo not shown) [Compound 6B, 3,4,5-tricinnamoylshikimic acid]
IC50 (MimiCE; [7]): 19 µM | IC50/IC50 TbCet1, MimiCE (MimiCE): 13 | activity against SceCet1 (in words) (SceCet1): inactive | IC50 (SceCet1; 25 nM SceCet1, 30°C, read-out: IC50 SceCet1): > 500 µM | fold lower potency against CthTTM than against TbCet1 (CthTTM [5]): 100 fold | IC50 (CthTTM [5]; 500 nM CthTTM, 37°C): 150 µM | IC50/IC50 TbCet1, CthTTM (CthTTM [5]; ratio in parentheses): 100 | IC50 (Lef4; [9]): 10 µM | IC50/IC50 TbCet1, Lef4 (Lef4): 7 | IC50 (TbCet1 [2]; [10]): 1500 nM

O=P(O)(O)OP(=O)(O)OP(=O)(O)O [Tripolyphosphate]
Ki (TbCet1 [6]): 1400 nM
